Assays:
α-system [1] = assay: Inhibitory effect on the α-system: reduction of epinephrine-increased blood-pressure in the atropinized dog; type: in vivo; conditions: anaesthetized atropinized dog, 10 mg/kg intravenous
Description: (§1) A dose of epinephrine, sufficient to produce a stable increase in blood-pressure was administered to a dog anaesthetized with sodium pentobarbital which had previously received an intravenous injection of 1 mg/kg of atropine sulphate. The operation was repeated several times and the blood-pressure obtained was noted. When the latter had returned to its normal level, the animal was given an intravenous dose of 10 mg/kg of the compound to be tested followed by the same dose as above of epinephrine.

[2] = Heart-rate in anaesthetized atropinized dogs after intravenous injection; type: in vivo; conditions: anaesthetized atropinized dog, 10 mg/kg intravenous
Description: (§2) The pharmacological investigation was carried out on anaesthetized dogs (30 mg/kg I.V. of sodium pentobarbital) having previously received an intravenous dose of 1 mg/kg of atropine sulphate.
(§3) The substance to be tested was given by an intravenous injection lasting two minutes after which the behaviour of both heart-rate and blood-pressure was observed over a certain period of time. An investigation was then carried out to detect any antiadrenergic properties. The compound listed hereunder were tested, in most cases in the form of pharmaceutically acceptable acid addition salts: […]

β-system = assay: Antiadrenergic effect on the β-system: reduction of isoprenaline-increased heart-rate in the dog; type: in vivo; conditions: anaesthetized atropinized dog, same method as epinephrine test (10 mg/kg intravenous)
Description: as §1
The antiadrenergic effects of the compounds of the invention on the β-system were also studied, by determining the degree to which they reduced isoprenaline-increased heart-rate. The same method as above was used.

[3] = Blood-pressure in anaesthetized atropinized dogs after intravenous injection; type: in vivo; conditions: anaesthetized atropinized dog, 10 mg/kg intravenous
Description: as §2, §3

α-system [4] = assay: Inhibitory effect on the α-system: reduction of epinephrine-increased blood-pressure in the atropinized dog; type: in vivo; conditions: anaesthetized atropinized dog, dose as low as 2 mg/kg
[5] = Acute toxicity in the rat, intravenous route; conditions: in vivo
Description: Acute toxicity tests were also carried out on the rat, by intravenous route.

Compound	reduction of epinephrine-induced arterial hypertension (α-system [1])	reduction in heart-rate [2]	reduction in isoprenaline-increased heart-rate (β-system)	reduction in blood-pressure [3]	reduction of epinephrine-induced arterial hypertension at low dose (α-system [4])	LD50 [5]
C=CCOc1ccccc1N(CC(O)CNC(C)(C)C)S(=O)(=O)c1ccc(OC)cc1 (centres unmarked) [Compound 14, 2-Allyloxy-N-(3-tert-butylamino-2 hydroxy-propyl)-N-(4-methoxy-benzenesulphonyl)-aniline]	reduced, at least partially, the epinephrine-induced arterial hypertension	marked and long-lasting reduction in heart-rate	marked reduction in the isoprenaline-increased heart-rate			
C=CCOc1ccccc1N(CC(O)CN1CCN(c2ccc(F)cc2)CC1)S(C)(=O)=O (centres unmarked) [Compound 23, 2-Allyloxy-N-[3-(4-(4-fluoro-phenyl)-1-piperazinyl)-2-hydroxy-propyl]-N-methylsulphonyl-aniline]	reduced, at least partially, the epinephrine-induced arterial hypertension			marked and constant reduction in blood-pressure		
C=CCOc1ccccc1N(CC(O)CN1CCN(c2ccccc2OC)CC1)S(C)(=O)=O (centres unmarked) [Compound 30, 2-Allyloxy-N-[2-hydroxy-3-(4-(2-methoxy-phenyl)-1-piperazinyl)-propyl]-N-methylsulphonyl-aniline]	reduced, at least partially, the epinephrine-induced arterial hypertension		marked reduction in the isoprenaline-increased heart-rate	marked and constant reduction in blood-pressure	Long-lasting and total reduction	
C=CCOc1ccccc1N(CC(O)CN1CCN(Cc2ccccc2)CC1)S(=O)(=O)c1ccc(C)cc1 (centres unmarked) [Compound 40, 2-Allyloxy-N-[3-(4-benzyl-1-piperazinyl)-2-hydroxy-propyl]-N-(4-methylbenzene-sulphonyl)-aniline]	reduced, at least partially, the epinephrine-induced arterial hypertension	marked and long-lasting reduction in heart-rate	marked reduction in the isoprenaline-increased heart-rate	marked and constant reduction in blood-pressure		12 mg/kg
C=CCOc1ccccc1N(CC(O)CN1CCN(c2ccccn2)CC1)S(=O)(=O)c1ccc(OC)cc1 (centres unmarked) [Compound 53, 2-Allyloxy-N-[2-hydroxy-3-(4-(2-pyridyl)-1-piperazinyl)-propyl]-N-(4-methoxy-benzenesulphonyl)-aniline]	reduced, at least partially, the epinephrine-induced arterial hypertension			marked and constant reduction in blood-pressure		
C=CCOc1ccccc1N(CC(O)CN1CCN(c2ccccc2F)CC1)S(=O)(=O)c1ccc(OC)cc1 (centres unmarked) [Compound 57, 2-Allyloxy-N-[2-hydroxy-3-(4-(2-fluoro-phenyl)-1-piperazinyl)-propyl]-N-(4-methoxy-benzenesulphonyl)-aniline]	reduced, at least partially, the epinephrine-induced arterial hypertension	marked and long-lasting reduction in heart-rate				
CS(=O)(=O)N(CC(O)CN1CCN(c2ccccc2Cl)CC1)c1ccc(Cl)c(Cl)c1 (centres unmarked) [Compound 75, 3,4-Dichloro-N-[3-(4-(2-chloro-phenyl)-1-piperazinyl)-2-hydroxy-propyl]-N-methylsulphonyl-aniline]	reduced, at least partially, the epinephrine-induced arterial hypertension			marked and constant reduction in blood-pressure		
COc1ccccc1N1CCN(CC(O)CN(c2ccc(Cl)c(Cl)c2)S(C)(=O)=O)CC1 (centres unmarked) [Compound 77, 3,4-Dichloro-N-[2-hydroxy-3-(4-(2-methoxy-phenyl)-1-piperazinyl)-propyl]-N-methylsulphonyl-aniline]	reduced, at least partially, the epinephrine-induced arterial hypertension	marked and long-lasting reduction in heart-rate		marked and constant reduction in blood-pressure		
COc1ccc(S(=O)(=O)N(CC(O)CN2CCN(c3ccc(Cl)cc3)CC2)c2ccc(Cl)c(Cl)c2)cc1 (centres unmarked) [Compound 84, 3,4-Dichloro-N-[3-(4-(4-chloro-phenyl)-1-piperazinyl)-2-hydroxy-propyl]-N-(4-methoxy-benzenesulphonyl)-aniline]	reduced, at least partially, the epinephrine-induced arterial hypertension	marked and long-lasting reduction in heart-rate				
CC(=O)Nc1ccc(N(CC(O)CN2CCN(c3ccccc3)CC2)S(C)(=O)=O)cc1 (centres unmarked) [Compound 88, 4-Acetylamino-N-[2-hydroxy-3-(4-phenyl-1-piperazinyl)-propyl]-N-methylsulphonyl-aniline]	reduced, at least partially, the epinephrine-induced arterial hypertension		marked reduction in the isoprenaline-increased heart-rate	marked and constant reduction in blood-pressure		
COc1ccccc1N1CCN(CC(O)CN(c2ccc(NC(C)=O)cc2)S(C)(=O)=O)CC1 (centres unmarked) [Compound 90, 4-Acetylamino-N-[2-hydroxy-3-(4-(2-methoxy-phenyl)1-piperazinyl)-2-hydroxy-propyl]-N-methyl-sulphonyl-aniline]	reduced, at least partially, the epinephrine-induced arterial hypertension			marked and constant reduction in blood-pressure		
CC(=O)Nc1ccc(N(CC(O)CN2CCN(c3ccccc3)CC2)S(=O)(=O)c2ccc(C)cc2)cc1 (centres unmarked) [Compound 91, 4-Acetylamino-N-[2-hydroxy-3-(4-phenyl-1-piperazinyl)-propyl]-N-(4-methyl-benzenesulphonyl)-aniline]	reduced, at least partially, the epinephrine-induced arterial hypertension	marked and long-lasting reduction in heart-rate		marked and constant reduction in blood-pressure		
COc1ccccc1N1CCN(CC(O)CN(c2ccc(NC(C)=O)cc2)S(=O)(=O)c2ccc(C)cc2)CC1 (centres unmarked) [Compound 94, 4-Acetylamino-N-[2-hydroxy-3-(4-(2-methoxy-phenyl)-1-piperazinyl)-propyl]-N-(4-methyl-benzenesulphonyl)-aniline]	reduced, at least partially, the epinephrine-induced arterial hypertension	marked and long-lasting reduction in heart-rate		marked and constant reduction in blood-pressure		
CC(=O)Nc1ccc(N(CC(O)CN2CCN(c3ccccc3Cl)CC2)S(=O)(=O)c2ccc(C)cc2)cc1 (centres unmarked) [Compound 95, 4-Acetylamino-N-[3-(4-(2-chloro-phenyl)-1-piperazinyl)-2-hydroxy-propyl]-N-(4-methyl-benzenesulphonyl)-aniline]				marked and constant reduction in blood-pressure		
COc1ccccc1N1CCN(CC(O)CN(c2ccc(CC(N)=O)cc2)S(=O)(=O)c2ccc(C)cc2)CC1 (centres unmarked) [Compound 105, N-[2-hydroxy-3-(4-(2-methoxy-phenyl)-1-piperazino)-propyl]-N-(4-methyl-benzenesulphonyl)-4-amino-phenylacetamide]	reduced, at least partially, the epinephrine-induced arterial hypertension			marked and constant reduction in blood-pressure		
N-[2-hydroxy-3-(4-(2-methoxy-phenyl)-1-piperazinyl)-propyl]-N-methylsulphonyl-4-amino-phenylacetamide [Compound 102]	reduced, at least partially, the epinephrine-induced arterial hypertension	marked and long-lasting reduction in heart-rate		marked and constant reduction in blood-pressure	Long-lasting and total reduction	
N-[3-(4-(4-chlorophenyl)-1-piperazinyl)-2-hydroxy-propyl]-N-methylsulphonyl-4-amino-phenylacetamide [Compound 99]	reduced, at least partially, the epinephrine-induced arterial hypertension					

Source: patent publication US4330542A, “N(Sulfonyl)anilines for treating angina pectoris” (Sanofi, priority 1979, dated 1982)
